Assay results reported in patent publication US20230277612A1, “SAPONIN DERIVATIVES FOR USE IN MEDICINE” (priority 2020, published 2023).
Read-outs that look alike come from different tables or passages of the source.

Experiments:
[1] = system: EGFR expressing cells (A431); assay type: cell-based
HeLa cells = assay: cells; assay type: cell-based
Experimental: (§1) (FIGS. 66a and 66B). Next toxicity was determined, for this the modified saponins were titrated on HeLa and A431 cells. […] Next toxicity was determined, for this the modified saponins were titrated on HeLa and A431 cells.

A431 cells = assay: cells; assay type: cell-based
Experimental: as §1

[2] = Critical micellar concentration (CMC) by ANS fluorescence; assay type: physicochemical; conditions: Table A7; determined in PBS
Experimental: The critical micellar concentration (CMC) of saponins derived from Saponaria officinalis (SO) (Table A7) and derived from Quillaja saponaria (QS) (Table A8, and Table A9) was determined by the method of DeVendittis et al. (A fluorimetric method for the estimation of the critical micelle concentration of surfactants, Analytical Biochemistry, Volume 115, Issue 2, August 1981, Pages 278-286) as follows:
(§2) The emission spectrum of 8-Anilinonaphthalene-1-sulfonic acid (ANS) in either purified water (MQ) or PBS (Dulbecco's PBS+/+) was determined at dry weight concentrations of saponins ranging from 1 to 1400 pM to cover the range below and above the CMC. Above the CMC, the fluorescence yield of ANS increases and the wavelength of maximum emission decreases due to portioning of the fluorescent dye into micelles. Fluorescence yields were recorded on a Fluoroskan Ascent FL (Thermo Scientific) at an excitation wavelength of 355 nm, and an emission wavelength of 460 nm. 6 μg at a concentration of 75.86 pM of ANS were used per sample and measurement.
The critical micellar concentration (CMC) of saponins was determined by the method of DeVendittis et al. (A fluorimetric method for the estimation of the critical micelle concentration of surfactants, Analytical Biochemistry, Volume 115, Issue 2, August 1981, Pages 278-286) as follows:
as §2, with “μM” for “pM”

human red blood cells = assay: cells; assay type: cell-based
Experimental: Red blood cells (RBCs) were isolated from a buffy coat using a Ficoll gradient. The obtained RBC pellet (˜4-5 ml) was washed 2× with 50 ml DPBS (without Ca^2+/Mg^2+, PAN-Biotech GmbH). Cells were pelleted by centrifugation for 10 min, 800×g at RT. RBC were counted and resuspended at 500.000.000 c/ml in DPBS (without Ca^2+/Mg^2+), based on total cell count.
(§3) Saponin dilutions were prepared in DPBS (with Ca^2+/Mg^2+, PAN-Biotech GmbH), at 1.11× final strength. For positive lysis control a 0.02% Triton-X100 solution was prepared in DPBS^+/+. Of all compound solutions 135 μl was dispensed/well in a 96 well V-bottom plate. To this 15 μl RBC suspension was added and mixed shortly (10 sec-600 rpm). The plate was incubated 30 min at RT, with gentle agitation. Afterwards the plate was spun for 10 min at 800×g to pellet the RBC and 100-120 μl supernatant was transferred to a standard 96 wp (96 well-plate).
as §3, with “DPBS+/+.” for “DPBS^+/+.”

[3] = system: EGFR expressing cells (HeLa); assay type: cell-based
[4] = A431, + 5 pM EGFdianthin, read-out: IC50 endosomal escape enhancing activity
[5] = Table A5, saponin alone, read-out: IC50 nM (Toxicity)
[6] = Table A6, saponin alone, read-out: IC50 nM (Toxicity)
[7] = Table A5, read-out: IC50 nM (hemolysis)
[8] = Table A6, read-out: IC50 nM (hemolysis)
[9] = read-out: IC50 hemolytic activity
[10] = HeLa, + 5 pM EGFdianthin, read-out: IC50 endosomal escape enhancing activity
[11] = Table A6, A431 cells, saponin titrated + 5 pM EGFdianthin, read-out: IC50 nM (Activity)
[12] = Table A5, HeLa cells, saponin titrated + 5 pM EGFdianthin, read-out: IC50 nM (Activity)
[13] = saponin alone, read-out: IC50 toxicity

SMILES | IC50 [1, 4] | IC50 (HeLa cells; [5]) | IC50 (A431 cells; [6]) | CMC [2] | IC50 (human red blood cells; [7]) | IC50 (human red blood cells; [8]) | IC50 (human red blood cells; [9]) | IC50 [3, 10] | IC50 [1, 11] | IC50 [3, 12] | IC50 (HeLa cells; [13]) | IC50 (A431 cells; [13])
CC1OC(OC2C(C)OC(OC(=O)[C@]34CCC(C)(C)CC3C3=CCC5[C@@]6(C)CC[C@H](OC7OC(C(=O)NC(C)(CO)CO)C(O)C(OC8OCC(O)C(O)C8O)C7OC7OC(CO)C(O)C(O)C7O)[C@@](C)(C=O)C6CC[C@@]5(C)[C@]3(C)C[C@H]4O)C(OC3OC(C)C(OC4OCC(O)C(OC5OC(CO)C(O)C(O)C5O)C4O)C(O)C3O)C2O)C(O)C(OC2OCC(O)C(O)C2O)C1O (stereo partly drawn) [SO1861-(Ac—OH)-(Glu-AMPD)] | 3000 nM | > 100000 nM | > 100000 nM | 90 ± 10 µM | 140000 nM | 140000 nM | 140000 nM | 3000 nM |  |  |  | 
CC1OC(OC2C(C)OC(OC(=O)C34CCC(C)(C)CC3C3=CCC5C6(C)CCC(OC7OC(C(=O)O)C(O)C(OC8OCC(O)C(O)C8O)C7OC7OC(CO)C(O)C(O)C7O)C(C)(C=NNC(=O)CCCCCN7C(=O)C=CC7=O)C6CCC5(C)C3(C)CC4O)C(OC3OC(C)C(OC4OCC(O)C(OC5OC(CO)C(O)C(O)C5O)C4O)C(O)C3O)C2O)C(O)C(OC2OCC(O)C(O)C2O)C1O (stereo not drawn) [SO1861-(Ald-EMCH)-(Ac—OH)] | 10000 nM | > 100000 nM | > 100000 nM | >300 µM | > 1e+06 nM | > 1e+06 nM |  | 8000 nM |  |  |  | 
CC1OC(OC2C(C)OC(OC(=O)[C@]34CCC(C)(C)CC3C3=CCC5[C@@]6(C)CC[C@H](OC7OC(C(=O)NC(C)(CO)CO)C(O)C(OC8OCC(O)C(O)C8O)C7OC7OC(CO)C(O)C(O)C7O)[C@@](C)(CO)C6CC[C@@]5(C)[C@]3(C)C[C@H]4O)C(OC3OC(C)C(OC4OCC(O)C(OC5OC(CO)C(O)C(O)C5O)C4O)C(O)C3O)C2O)C(O)C(OC2OCC(O)C(O)C2O)C1O (stereo partly drawn) [SO1861-(Ald-OH)-(Ac—OH)-(Glu-AMPD)] |  | > 100000 nM | > 100000 nM | 120 ± 12 µM | > 1e+06 nM | > 1e+06 nM |  |  | > 20000 nM | > 20000 nM |  | 
CC1OC(OC2C(C)OC(OC(=O)[C@]34CCC(C)(C)CC3C3=CCC5[C@@]6(C)CC[C@H](OC7OC(C(=O)NCCN8C(=O)C=CC8=O)C(O)C(OC8OCC(O)C(O)C8O)C7OC7OC(CO)C(O)C(O)C7O)[C@@](C)(C=O)C6CC[C@@]5(C)[C@]3(C)C[C@H]4O)C(OC3OC(C)C(OC4OCC(O)C(OC5OC(CO)C(O)C(O)C5O)C4O)C(O)C3O)C2O)C(O)C(OC2OCC(O)C(O)C2O)C1O (stereo partly drawn) [SO1861-(Glu-AEM)-(Ac—OH)] | 4000 nM | > 100000 nM | > 100000 nM | 90 ± 10 µM | 100000 nM | 100000 nM | 100000 nM | 8000 nM |  |  |  | 
CC1OC(OC2C(C)OC(OC(=O)[C@]34CCC(C)(C)CC3C3=CCC5[C@@]6(C)CC[C@H](OC7OC(C(=O)NCCN8C(=O)C=CC8=O)C(O)C(OC8OCC(O)C(O)C8O)C7OC7OC(CO)C(O)C(O)C7O)[C@@](C)(CO)C6CC[C@@]5(C)[C@]3(C)C[C@H]4O)C(OC3OC(C)C(OC4OCC(O)C(OC5OC(CO)C(O)C(O)C5O)C4O)C(O)C3O)C2O)C(O)C(OC2OCC(O)C(O)C2O)C1O (stereo partly drawn) [SO1861-(Glu-AEM)-(Ald-OH)-(Ac—OH)] |  | > 100000 nM | > 100000 nM | >150 µM | > 1e+06 nM | > 1e+06 nM |  |  | > 20000 nM | > 20000 nM |  | 
CC1OC(OC2C(C)OC(OC(=O)[C@]34CCC(C)(C)CC3C3=CCC5[C@@]6(C)CC[C@H](OC7OC(C(=O)O)C(O)C(OC8OCC(O)C(O)C8O)C7OC7OC(CO)C(O)C(O)C7O)[C@@](C)(C=O)C6CC[C@@]5(C)[C@]3(C)C[C@H]4O)C(OC3OC(C)C(OC4OCC(O)C(OC5OC(CO)C(O)C(O)C5O)C4O)C(O)C3O)C2O)C(O)C(OC2OCC(O)C(O)C2O)C1O (stereo partly drawn) [SO1861-Ac—OH] | 800 nM |  |  | 350 ± 35 µM |  |  |  | 1000 nM |  |  | 10000 nM | 2000 nM
